The target in data set [1] is T1, interaction between ICAM-1 and LFA-1 (Homo sapiens, UniProt P05107+P20701).
T1 construct: endogenous in cells; host or cells: JY (human B cell line) for LFA-1; TNF-alpha stimulated HUVEC (Clonetics) for ICAM-1
Put plainly: Adhesion of JY cells to TNF-α stimulated human endothelial cells (JY-EC). The data set is classed as cell-based. The conditions noted are these: for IC50: JY cells on TNF-α stimulated human endothelial cells, 30 minutes at 37° C., read-out: JY-EC IC50 (concentration at which adhesion is inhibited to 50% of control level). The source says: In order to establish the pharmacological properties of the compounds of formula (I) as a method of treatment for immuno-inflammatory disease in a patient suffering therefrom--such diseases being for the most part, but not limited exclusively to, graft rejection, ischemia reperfusion, asthma/allergy, delayed type hypersensitivity and AIDS--an in vitro assay was used to determine the effect of the compounds of the present invention on β2 mediated adhesion. Because human endothelial cells (EC's) express low levels of ICAM-1 on their surface and stimulation with TNF-α increases its expression, adhesion of lymphocytes can be measured following the principal assay design as described below for the human B cell line JY.
A. Cell Adhesion to Stimulated Endothelial Cells
Human umbilical vein endothelial cells (HUVEC) were purchased from Clonetics (San Diego, Calif.) at passage number 2. The cells were growth on 0.5% porcine skin gelatin pre-coated flasks (Sigma, St. Louis, Mo.) in EGM-UV media (Clonetics, San Diego, Calif.) supplemented with 10% fetal bovine serum. Cells are re-fed every 2-3 days, reaching confluence by day 4 to 6. […] The endothelial cells are not used following passage 7. Endothelial cells are grown to confluency in 96-well micro-titer assay plate.
The human B cell line JY was cultured in RPMI media containing 10% fetal calf serum at 37° C. in a humidified CO2 atmosphere. JY cells are loaded with the fluorescent dye indicator BCECF as follows: JY cells are washed twice with HBSS and cells are then re-suspended in HBSS at 5×10^6 cells/ml; BCECF-AM (Molecular Probes), stock concentration=1 mg/ml in DMSO, is added to the JY cells to a final concentration of 2 μg/ml; cells are incubated in the dark at 37° C. for 30-45 minutes; washed twice with HBSS and used in the assay.
The compounds presented in this invention are typically dissolved in 2.5 mg HSA/ml DME at four times the assay concentration and pH adjusted with 7.5% Na bicarbonate as needed. A confluent monolayer of human EC's in microtiter plates is stimulated with 50 U/ml TNF-α for 20 hours, and on the next day washed twice with DMEM-HSA before use. The EC's may be fixed by treatment with 3% paraformaldehyde. The assay plate is placed on ice, and test compound is added to quadruplicate wells, then all wells received 2.5×10^5 labeled JY cells and an optional stimulus (e.g. phorbol ester). Plates are incubated for 30 minutes at 37° C. in a CO2 incubator. Plates are washed four times with 100 μl PBS/well and the fluorescence of the adherent cells is measured using a fluorescence reader. Fluorescence in each well is measured as Arbitrary Fluorescence Units and percent adhesion in the absence of peptide is adjusted to 100% and the percent adhesion in the presence of peptides is calculated. Inhibitory concentrations (IC50) are determined based on 100% adhesion of cells that were incubated in the absence of drugs. Stimulation of protein kinase C by phorbol esters such as […] (PMA) increases the observed adhesion approximately 5-fold. This PMA induced adhesion is 100% blocked by anti-LFA-1 or anti-CD18 antibodies and about 75-80% by anti-ICAM-1 antibodies, while it is unaffected by antibodies to Mac-1, α4 or control antibodies. Thus, this assay measures preferentially the interaction between ICAM-1 and LFA-1.

Data set [2] relates to JY cells. Put plainly: Proliferation of JY cells (cytotoxicity evaluation). The data set is classed as cell-based, human. The source says:
(§1) The activity in the assay was not due to cytotoxic activity of the compounds.

Data set [3] concerns U937 cells. The data set is classed as cell-based.
Source text: as §1

Data set [4] relates to rhinovirus. The following applies: Martin, S. D. et al.; cited from earlier work.

Like-named read-outs stand apart in the source and are kept apart here.

T1 sequence (P20701 26-1170): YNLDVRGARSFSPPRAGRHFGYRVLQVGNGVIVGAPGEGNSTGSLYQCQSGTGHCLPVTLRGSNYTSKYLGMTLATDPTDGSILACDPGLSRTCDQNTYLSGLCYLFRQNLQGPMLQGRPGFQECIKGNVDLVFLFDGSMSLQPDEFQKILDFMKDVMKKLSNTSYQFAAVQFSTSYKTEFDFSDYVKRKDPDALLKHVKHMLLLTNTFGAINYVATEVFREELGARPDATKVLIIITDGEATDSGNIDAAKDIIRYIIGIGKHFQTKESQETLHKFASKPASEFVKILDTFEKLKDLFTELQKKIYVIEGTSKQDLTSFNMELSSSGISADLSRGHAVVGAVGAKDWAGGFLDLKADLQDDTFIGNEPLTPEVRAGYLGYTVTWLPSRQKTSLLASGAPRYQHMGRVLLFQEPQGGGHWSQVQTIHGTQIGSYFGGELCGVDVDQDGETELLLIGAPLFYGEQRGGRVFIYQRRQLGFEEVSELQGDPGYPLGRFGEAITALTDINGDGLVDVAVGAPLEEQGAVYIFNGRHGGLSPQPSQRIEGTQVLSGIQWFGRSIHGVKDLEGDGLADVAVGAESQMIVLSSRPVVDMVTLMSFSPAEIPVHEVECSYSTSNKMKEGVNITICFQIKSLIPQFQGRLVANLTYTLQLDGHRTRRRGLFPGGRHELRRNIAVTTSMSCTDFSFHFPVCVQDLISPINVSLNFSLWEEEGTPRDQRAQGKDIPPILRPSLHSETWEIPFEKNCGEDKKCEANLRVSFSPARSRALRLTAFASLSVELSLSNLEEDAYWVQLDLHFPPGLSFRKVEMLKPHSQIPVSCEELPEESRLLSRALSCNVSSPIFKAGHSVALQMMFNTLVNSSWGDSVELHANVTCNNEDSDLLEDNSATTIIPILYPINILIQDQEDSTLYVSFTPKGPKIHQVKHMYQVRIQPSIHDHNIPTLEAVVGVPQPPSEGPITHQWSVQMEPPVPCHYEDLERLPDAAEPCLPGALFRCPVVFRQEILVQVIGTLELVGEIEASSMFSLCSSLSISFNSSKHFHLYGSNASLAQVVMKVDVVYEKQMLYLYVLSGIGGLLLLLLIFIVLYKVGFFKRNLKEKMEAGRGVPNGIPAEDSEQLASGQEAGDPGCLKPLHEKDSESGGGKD
T1 sequence (P05107 23-769): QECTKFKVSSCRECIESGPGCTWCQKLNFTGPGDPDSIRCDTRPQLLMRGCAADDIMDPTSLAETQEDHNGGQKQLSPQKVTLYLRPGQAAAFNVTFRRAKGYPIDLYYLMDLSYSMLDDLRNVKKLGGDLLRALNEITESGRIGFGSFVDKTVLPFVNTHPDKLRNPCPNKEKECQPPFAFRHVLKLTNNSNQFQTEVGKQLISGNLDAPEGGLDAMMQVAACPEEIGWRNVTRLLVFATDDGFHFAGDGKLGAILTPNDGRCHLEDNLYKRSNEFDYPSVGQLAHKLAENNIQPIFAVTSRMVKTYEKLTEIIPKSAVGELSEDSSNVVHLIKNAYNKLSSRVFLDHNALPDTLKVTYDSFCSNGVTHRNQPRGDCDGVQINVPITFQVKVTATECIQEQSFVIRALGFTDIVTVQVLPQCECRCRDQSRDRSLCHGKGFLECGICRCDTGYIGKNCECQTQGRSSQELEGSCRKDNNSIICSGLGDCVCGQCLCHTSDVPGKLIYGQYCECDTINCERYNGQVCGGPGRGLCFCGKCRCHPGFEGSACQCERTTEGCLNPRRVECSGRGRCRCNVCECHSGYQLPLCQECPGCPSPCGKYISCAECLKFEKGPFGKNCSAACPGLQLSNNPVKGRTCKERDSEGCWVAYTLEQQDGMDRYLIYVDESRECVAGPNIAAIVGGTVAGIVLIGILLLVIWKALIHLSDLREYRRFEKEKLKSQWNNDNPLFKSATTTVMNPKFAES

As to `O=S(=O)(c1cc(OCc2cccnc2)c2ccccc2c1)N1CC2CC3CC(C2)CC1C3` [Example 55, 4-[1-(3-Pyridinylmethoxy)-3-naphthylsulfonyl]-4-azahomoadamantane], in data set [1], the IC50 worked out at 2.1 µM.
The same measure, in the same setting: under `O=S(=O)(c1ccc2c(Cl)cccc2c1)N1CC2CC1CS2` (stereo not drawn) [Example 20, 5-(5-Chloro-2-naphthylsulfonyl-2-thia-5-azabicyclo-2.2.1]heptane] stands 6 µM.
On the same count and under the same terms, under `O=C(O)C12CC3CC(CC(NS(=O)(=O)c4ccc5c(Cl)cccc5c4)(C3)C1)C2` [Example 24, 1-(5-Chloro-2-naphthylsulfonyl)-1-amino-3-adamantane-carboxylic acid] stands 136 µM.
On the same count and under the same terms, in the case of `O=S(=O)(c1ccc2ncccc2c1)N1CC2CCC(CC2)C1` [Example 29, 3-(6-Quinolinesulfonyl)-3-azabicyclo[3.2.2]nonane] it was 8 µM.
For `Nc1cccc2cc(S(=O)(=O)N3CC4CCC(CC4)C3)ccc12` [Example 35, 3-(5-Amino-2-naphthylsulfonyl)-3-azabicyclo[3.2.2]nonane], the IC50 in data set [1] is 13.6 µM.
Still for that read-out and setting: under `CC(=O)Oc1cccc2cc(S(=O)(=O)NC34CC5CC(CC(C5)C3)C4)ccc12` [Example 15, 1-(5-Acetoxy-2-naphthylsulfonyl)-1-aminoadamantane] stands 56 µM.
As to `O=S(=O)(c1ccc2c(Cl)cccc2c1)N1CC2CCC(CC2)C1` [Example 5, 3-(5-Chloro-2-naphthylsulfonyl)-3-azabicyclo[3.2.2]nonane], the IC50 in data set [1] turned out to be 0.5 µM. Also, the “inhibition of proliferation of JY cells” value in data set [2] is “did not inhibit the proliferation of JY cells”. Besides, the “inhibition of proliferation of U937 cells” value in data set [3] is recorded as “did not inhibit the proliferation of JY cells or U937 cells”.
In the case of `O=S(=O)(c1ccc2ncccc2c1)N1CC2CC3CC(C2)CC1C3` [Example 31, 4-(6-Quinolinesulfonyl)-4-azahomoadamantane], in data set [1], the IC50 was found to be 5 µM.
Turning to `O=S(=O)(c1cc(OCc2cccnc2)c2ccccc2c1)N1CC2CCC(CC2)C1` [Example 54, 3-[1-(3-Pyridinylmethoxy)-3-naphthylsulfonyl]-3-azabicyclo[3.2.2]nonane], in data set [1], the IC50 was determined as 4.4 µM.
For `O=S(=O)(NC12CC3CC(CC(C3)C1)C2)c1ccc2c(Cl)cccc2c1` [Example 3, 1-(5-Chloro-2-naphthylsulfonyl)-1-aminoadamantane], in data set [1], the IC50 worked out at 3 µM. In addition, the “inhibition of proliferation of JY cells” value in data set [2] (at concentrations active in the adhesion assay, measured after 20 hours) was “did not inhibit the proliferation of JY cells”. Further, the “inhibition of proliferation of U937 cells” value in data set [3] was “did not inhibit the proliferation of JY cells or U937 cells”.
For the molecule `O=S(=O)(c1ccc2c(Cl)cccc2c1)N1CC2CC1CO2` (stereo not drawn) [Example 21, 5-(5-Chloro-2-naphthylsulfonyl)-2-oxa-5-azabicyclo-[2.2.1]heptane], in data set [1], the IC50 was 86 µM.
Same read-out and setting: under `O=S(=O)(c1ccc2c(Cl)cccc2c1)N1CC2CC3CC(C2)CC1C3` [Example 18, 4-(5-Chloro-2-naphthylsulfonyl)-4-azahomoadamantane] stands 0.25 µM.
As to `CCCCCCCCCCCCCC(=O)O[C@@H]1[C@@H](C)[C@@]2(O)[C@@H](C=C(CO)C[C@]3(O)C(=O)C(C)=C[C@@H]23)[C@@H]2C(C)(C)[C@]12OC(C)=O` [13,14-phorbol myristate acetate (PMA), 13,14-phorbol myristate acetate, reference compound], in data set [1] (stimulation of protein kinase C by PMA), the “increase of observed adhesion” value was “approximately 5 fold”.
Consider `O=S(=O)(c1ccc2c(Cl)cccc2c1)N1CC2CCC(C2)C1` [Example 17, 3-(5-Chloro-2-naphthylsulfonyl)-3-azabicyclo[3.2.1]-octane], for which the IC50 in data set [1] came out at 15 µM.
In the case of `COc1ccc(S(=O)(=O)N2CC3CCC(CC3)C2)c2ccccc12` [Example 44, 3-(4-Methoxy-1-naphthylsulfonyl)-3-azabicyclo[3.2.2]nonane], in data set [1], the IC50 was 1.6 µM.
On the same count and under the same terms, under `O=S(=O)(NC12CC3CC(CC(C3)C1)C2)c1ccc2ncccc2c1` [Example 30, 1-(6-Quinolinesulfonyl)-1-aminoadamantane] stands 23 µM.

B1: soluble ICAM-1: soluble ICAM-1, specific inhibitor of rhinovirus infection (protein, UniProt P05362 28-480, looked up)
extracellular domain: QTSVSPSKVILPRGGSVLVTCSTSCDQPKLLGIETPLPKKELLLPGNNRKVYELSNVQEDSQPMCYSNCPDGQSTAKTFLTVYWTPERVELAPLPSWQPVGKNLTLRCQVEGGAPRANLTVVLLRGEKELKREPAVGEPAEVTTTVLVRRDHHGANFSCRTELDLRPQGLELFENTSAPYQLQTFVLPATPPQLVSPRVLEVDTQGTVVCSLDGLFPVSEAQVHLALGDQRLNPTVTYGNDSFSAKASVSVTAEDEGTQRLTCAVILGNQSQETLQTVTIYSFPAPNVILTKPEVSEGTEVTVKCEAHPRAKVTLNGVPAQPLGPRAQLLLKATPEDNGRSFSCSATLEVAGQLIHKNQTRELRVLYGPRLDERDCPGNWTWPENSQQTPMCQAWGNPLPELKCLKDGTFPLPIGESVTVTRDLEGTYLCRARSTQGEVTRKVTVNVLSPRYE
modifications: extracellular domain
Consider B1, for which, in data set [4], the “inhibition of rhinovirus infection” value is on record as “act as specific inhibitor of rhinovirus infection”.

The values above are taken from patent US5707985A, “Naphthyl-, quinolyl- and isoquinolyl- sulfonamide derivatives as cell adhesion modulators” (Tanabe Seiyaku Co. Ltd., priority 1995, dated 1998).
